Measured values from patent publication US6710090B2, “Inhibitory or blocking agents of molecular generating and/or inducing functions” (priority 1994, dated 2004).

How the values were obtained:
[1] = system: E. coli strain no. W3110; test: Anti-microbacterial effect on E. Coli; format: cell-based; conditions: for colony formation unit (CFU): 2 μl per 1 ml of culture medium
[2] = system: Candida albicans; test: Antifungal effect; format: cell-based; conditions: for CFU: 2 μl per 1 ml of culture medium, 10^6 CFU/ml, Sabouraud broth
[3] = system: single strand DNA, double strand DNA and mRNA of E. coli bacteriophage; test: Antiviral effect, E. coli bacteriophage structure and infection, electron microscopes; format: cell-based
Experimental: In order to investigate the effect on virus, changes in structure of single strand DNA, double strand DNA and mRNA of E. coli bacteriophage (1 ml of 1 mol solution), which were prepared as non-treated sample and treated sample with 4 μl of Yoshixol, were observed by scanning and transmission electron microscopes. In addition, according a general bacteriological technique, changes in proliferation and in morphological aspect (by scanning and transmission electron microscopes) of E. Coli, which was infected by single strand DNA, double strand DNA or mRNA, were investigated before and after treatment of each phage with Yoshixol. As treated samples, 4 μl of Yoshixol was added in 1 ml of each phage solution which concentration was adjusted to 1 mol. […] In addition, an effect of Yoshixol on chicken myeloblastosis virus (AMV) reverse transcriptase (Gibco Co. Getesburg, Md., USA) was investigated by measuring amount of cDNA synthesis, which was amplified by PCR of RNA(5 μg) and AMV reverse transcriptase (25 units). As treated group, 0.01 μl of Yoshixol was added to 25 units sample of the AMV reverse transcriptase. Thus, the expected production of cDNA was obtained in the non-treated group, however, the amount of cDNA production decreased to 10% of the expected one when Yoshixol was treated (referred FIG. 15).

[4] = system: primer (SEQ ID NO: 2) and snake DNA; test: PCR with primer or DNA template treated with Yoshixol; format: biochemical
Experimental: Effect of Yoshixol on PCR was investigated by DNA template which was extracted from snake (blue-green snake, captured at Matsumoto city, Nagano). The new synthesized dimer of (SEQ ID NO: 2) (5′>CTTCGGGCTTCGGG<3′) with 7 base-pair alignment (CTTCGGG) above-mentioned was used as a primer. PCR reaction was done by use of DNA thermal cycler (PJ-2000) made in PERKIN ELMER CETUS company. The following six combinations were prepared for the test samples. Those are two kinds of samples which consist of 5 μl of primer (100 pico mole/μl) with 5 μl of Yoshixol (P+) and without Yoshixol (P−). In addition, two kinds of samples which consist of 5 μl. of snake DNA (500 ng/μl) with 5 μl of Yoshixol (D+) and without Yoshixol (D−). And, additional two kinds of samples which consist of 1 μl of polymerase enzymes (Recombinant Taq DNA Polymerase, No. R001A, TaKaRa Shuzo Co., Otsu city: 5 unit/pd) with 1 μl of Yoshixol (Pm+) and without Yoshixol (Pm−). After each sample was placed for 10 minutes at room temperature, each sample was diluted in distilled water. And, it is adjusted in a primer solution of 10 picomole/μl, DNA solution of 50 ng/μl and a polymerase enzymes solution of 0.5 unit/μl. Then, the following combinations were prepared. […] In each combination, amount of cDNA synthesis was amplified by a PCR method and was measured. […]

[5] = 50 μl in the whole space of the schale, indirect contact, 24 hours, 37° C.

C=C1CC(C)(C)C=CC1=O [Yoshixol, 4,4-dimethyl-6-methylene-2-cyclohexen-1-one]
colony formation unit (CFU) ([1]; after 1 hour cultured, initial 10^8): zero
colony formation unit (CFU) ([1]; after 24 hours, initial 10^8, control 10^10): zero
proliferation with evaporating component of Yoshixol [1, 5]: did not occur
histological aspect of cell death, scanning electron microscopy ([1]; final stage after Yoshixol): destroyed resulting in small particles
CFU ([2]; after 1 hour): zero
CFU ([2]; after 3 hours incubated): zero
proliferation with evaporating component of Yoshixol [2, 5]: did not occur
helical and multi-dimensional structure of single strand DNA, double strand DNA and mRNA ([3]; 4 μl of Yoshixol in 1 ml phage solution (1 mol), electron microscopes): became a simple structure
adhesion of the phage on the bacterial surface and/or intrabacterial existence ([3]; E. coli infected with phage treated with Yoshixol): not in the treated group
PCR bounds versus P−, D−, Pm−, group P+, D−, Pm− ([4]; only primer processed by Yoshixol (5 μl with 5 μl)): did not differ
PCR bounds versus P−, D−, Pm−, group P−, D+, Pm− ([4]; only snake DNA processed by Yoshixol (5 μl with 5 μl)): did not differ
